Data on two molecules can be found in patent publication US8222020B2, “Biologically pure strain of Lactobacillus fermentum, strain Ess-1” (SCA Hygiene Products AB, priority 2006, dated 2012).

The structures appear in SMILES notation.

In the assay the test system is C. albicans. Nature of the assay: Screening II: Candida growth in Lactobacillus cell-free filtrate (LCF), visual turbidity scale 5 to 0. In kind it is cell-based, Candida albicans. Conditions: acids 50 mM, salts 0.3%; 20 hours at 37° C. From the text:
Clinical isolates of Candida albicans and Candida glabrata were used as test strains. These were isolated from the vagina of women with vaginal candidiasis and from healthy females. Suspensions of lactobacilli grown in dMRSs broth (MRS broth without addition of sodium acetate) were centrifuged and sterile filtered. The filtrate is henceforth called Lactobacillus Cell-free Filtrate, LCF. A specified volume was transferred to wells of a micro titre plate and was let to air dry and thereafter resuspended in sterile distilled water to a concentration three times higher and transferred to 96-wells micro titre plates. Candida was added to all vials (three isolates of C. albicans and C. glabrata, respectively, were used). The inhibition was evaluated by visual observation of turbidity and graduated by two persons using a template on a scale from five to zero. […] The plates were incubated for 20 hours at 37° C. and the candida growth in the vials was visually evaluated and graduated from five to zero. […] The inhibition was evaluated by visual observation of turbidity and graduated by two persons using a template on a scale from five to zero. […] The plates were incubated for 20 hours at 37° C. and the candida growth in the wells was visually evaluated and graduated from five to zero.

With `CCC(=O)O` [propionic acid], the “effect of acids and acid salts on the growth of C. albicans” value is on record as “most extended effect”. On to `CCC(=O)[O-].[Na+]` [Sodium propionate], for which the “effect of acids and acid salts on the growth of C. albicans” value is listed as “most extended effect”.
